Tests used:
ERCC1-XPF = target: T1, ERCC1-XPF (Homo sapiens, UniProt Q92889); conditions: literature; cited from earlier work
T1 sequence (Q92889 1-916): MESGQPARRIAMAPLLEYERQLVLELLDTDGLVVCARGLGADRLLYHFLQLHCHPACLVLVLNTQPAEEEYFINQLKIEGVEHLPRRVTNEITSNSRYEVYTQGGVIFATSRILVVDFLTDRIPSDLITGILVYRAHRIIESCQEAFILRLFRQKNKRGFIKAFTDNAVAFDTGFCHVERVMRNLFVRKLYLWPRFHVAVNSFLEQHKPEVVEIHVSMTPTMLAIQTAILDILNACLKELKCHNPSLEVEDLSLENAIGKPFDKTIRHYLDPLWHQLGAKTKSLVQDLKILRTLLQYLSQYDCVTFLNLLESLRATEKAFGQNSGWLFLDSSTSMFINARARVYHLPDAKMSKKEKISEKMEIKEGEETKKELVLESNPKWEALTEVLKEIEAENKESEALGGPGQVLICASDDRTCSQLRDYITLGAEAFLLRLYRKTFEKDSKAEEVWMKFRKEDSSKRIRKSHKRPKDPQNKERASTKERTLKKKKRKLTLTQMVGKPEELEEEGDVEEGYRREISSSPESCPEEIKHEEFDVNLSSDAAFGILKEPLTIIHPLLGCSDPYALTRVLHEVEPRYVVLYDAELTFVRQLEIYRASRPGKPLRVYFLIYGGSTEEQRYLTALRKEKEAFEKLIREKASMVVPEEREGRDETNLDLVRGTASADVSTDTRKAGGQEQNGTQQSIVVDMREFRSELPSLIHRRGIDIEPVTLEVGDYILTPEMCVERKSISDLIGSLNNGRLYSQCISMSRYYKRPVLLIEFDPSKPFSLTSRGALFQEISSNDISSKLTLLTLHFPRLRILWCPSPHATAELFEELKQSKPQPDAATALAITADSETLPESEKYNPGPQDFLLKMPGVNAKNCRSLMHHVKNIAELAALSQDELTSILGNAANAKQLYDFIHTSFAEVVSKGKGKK

H1299 cells [1] = assay: MTS reduction assay, cisplatin cytotoxicity; format: cell-based, human
Protocol: To evaluate the cisplatin cytotoxicity effect in the selected H1299 cell line (highest ERCC1 expression), a concentration-response profile was established resorting to two mechanistically different cell viability assays, the CV staining and the MTS reduction assays (FIG. 9). The IC50 values for cisplatin were also calculated for a 72-h incubation period based on its dose-response profile. The 3-(4,5-dimethylthiazol-2-yl)-5-(3-carboxymethoxyphenyl)-2-(4-sulfophenyl)-2H-tetrazolium salt (MTS) reduction assay was carried out as a confirmatory assay of cell viability. This methodology is commonly used in in vitro toxicology and is based on the enzymatic reduction of a tetrazolium salt in viable cells by mitochondrial enzymes (NAD-dependent dehydrogenase) with the formation of a colored formazan product. […] H1299 cells were incubated for 2 h30 with the MTS reagent and the absorbance was measured at 490 nm and 690 nm (reference wavelength) using a SPECTROstar OMEGA microplate reader. Absorbance values presented by vehicle-treated control cells corresponded to 100% of cell viability. […] The IC50 was also calculated based on the concentration-response curve using GraphPad Prism® 9.0.

H1299 cells [2] = assay: Crystal violet (CV) staining assay, cisplatin cytotoxicity; format: cell-based, human; conditions: 72-h incubation
Protocol: To evaluate the cisplatin cytotoxicity effect in the selected H1299 cell line (highest ERCC1 expression), a concentration-response profile was established resorting to two mechanistically different cell viability assays, the CV staining and the MTS reduction assays (FIG. 9). The IC50 values for cisplatin were also calculated for a 72-h incubation period based on its dose-response profile. The cytotoxicity of cisplatin in H1299 cells was evaluated according to a previously described crystal violet (CV) staining protocol. This assay allows the colorimetric determination of adherent cells by staining their nucleus. First, cells were inoculated at a density of approximately 3×10^3 cells/well in 200 μL of complete culture medium in 96-well plates. After adherence (24 h), culture medium was renewed, and the cells were incubated with a range of 1-30 μM of cisplatin for another 72 h. After incubation, cells were washed with warm PBS to remove non-adherent cells (non-viable cells). The adherent cells were then fixated with ice-cold 96% ethanol for 10 min and stained with 0.1% crystal violet in 10% ethanol for 5 min. […] Absorbance was measured at 595 nm (OD595) using a SPECTROstar OMEGA microplate reader. […] The IC50 values were calculated based on the obtained concentration-response curves using GraphPad Prism® 9.0 (GraphPad Software, Inc., La Jolla, CA, USA).

With `COc1ccc2nc3cc(Cl)ccc3c(Nc3ccc(O)c(CN4CCN(C)CC4)c3)c2c1` [F06] as the compound, how does the “disruption of ERCC1-XPF interaction” value (ERCC1-XPF) read?
The value was “ability to disrupt the interaction between ERCC1 and XPF”.

What does the source list for `N.N.[Cl][Pt][Cl]` [cisplatin]?
IC50 (H1299 cells [1]; 72-h incubation): 3.7 µM; cell death (H1299 cells [1]; cisplatin alone at 1 μM, 72 h): 10-15%; IC50 (H1299 cells [2]): 3 µM

Reference: patent US20250213584A1, “ERCC1-XPF COMPLEX INHIBITOR COMPOUNDS AND THE USE THEREOF IN THE TREATMENT OF CANCER” (FUNDAÇÃO D. ANNA DE SOMMER CHAMPALIMAUD E DR. CARLOS MONTEZ …, priority 2023, published 2025)
